Measurements taken from the supplement of paper PMC5908809.

How the values were obtained:
[1] = test system: SNK-6 (IL-2 2.5 ng/mL); test: percent inhibition of viability; higher = more inhibition; conditions: 72 h
[2] = test system: KHYG-1 (IL-2 2.5 ng/mL); test: as above; conditions: 72 h
[3] = test system: normal primary NK cells, pool 3 (3 donors) (IL-2 2.5 ng/mL); test: as above; conditions: 72 h
[4] = test system: IMC-1 (IL-2 20 ng/mL); test: as above; conditions: 72 h
[5] = test system: NK-92 (IL-2 2.5 ng/mL); test: as above; conditions: 72 h
[6] = test system: normal primary NK cells, pool 1 (3 donors) (IL-2 2.5 ng/mL); test: as above; conditions: 72 h
[7] = test system: NKL (IL-2 2.5 ng/mL); test: as above; conditions: 72 h
[8] = test system: normal primary NK cells, pool 1 (3 donors), resting (IL-2 0 ng/mL); test: as above; conditions: 72 h
[9] = test system: KAI3 (IL-2 2.5 ng/mL); test: as above; conditions: 72 h
[10] = test system: NK-YS (IL-2 2.5 ng/mL); test: as above; conditions: 72 h
[11] = test system: DERL-7 (IL-2 2.5 ng/mL); test: as above; conditions: 72 h
[12] = test system: normal primary NK cells, pool 2 (3 donors) (IL-2 2.5 ng/mL); test: as above; conditions: 72 h
[13] = test system: YT (IL-2 2.5 ng/mL); test: as above; conditions: 72 h
[14] = test system: normal NK cells expanded with K562-aAPC; test: as above; conditions: 72 h, IL-2 2.5 ng/mL
Protocol: (§1)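 Drug sensitivity and resistance testing on K562-aAPC-expanded normal NK cells: 5 concentrations (10-fold steps over a 10,000-fold range), 72 h at 37 °C, viability by CellTiter-Glo normalised to DMSO and benzethonium chloride controls; DSS from the fitted curve.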

[15] = test system: normal NK cells expanded with K562-aAPC; test: drug sensitivity score (DSS) (DSS units); higher = more sensitive; extreme values may be limits of the assay; conditions: 72 h; IL-2 2.5 ng/mL
Protocol: as §1

[16] = test system: SNK-6 (IL-2 2.5 ng/mL); test: as above; conditions: 72 h
[17] = test system: KHYG-1 (IL-2 2.5 ng/mL); test: as above; conditions: 72 h
[18] = test system: normal primary NK cells, pool 3 (3 donors) (IL-2 2.5 ng/mL); test: as above; conditions: 72 h
[19] = test system: IMC-1 (IL-2 20 ng/mL); test: as above; conditions: 72 h
[20] = test system: NK-92 (IL-2 2.5 ng/mL); test: as above; conditions: 72 h
[21] = test system: normal primary NK cells, pool 1 (3 donors) (IL-2 2.5 ng/mL); test: as above; conditions: 72 h
[22] = test system: NKL (IL-2 2.5 ng/mL); test: as above; conditions: 72 h
[23] = test system: normal primary NK cells, pool 1 (3 donors), resting (IL-2 0 ng/mL); test: as above; conditions: 72 h
[24] = test system: KAI3 (IL-2 2.5 ng/mL); test: as above; conditions: 72 h
[25] = test system: NK-YS (IL-2 2.5 ng/mL); test: as above; conditions: 72 h
[26] = test system: DERL-7 (IL-2 2.5 ng/mL); test: as above; conditions: 72 h
[27] = test system: normal primary NK cells, pool 2 (3 donors) (IL-2 2.5 ng/mL); test: as above; conditions: 72 h
[28] = test system: YT (IL-2 2.5 ng/mL); test: as above; conditions: 72 h

Cc1ccc(C(=O)Nc2ccc(CN3CCN(C)CC3)c(C(F)(F)F)c2)cc1C#Cc1cnc2cccnn12 [Ponatinib] (max concentration tested 1000 nM)
percent inhibition of viability [%]
Conditions | 0.1 nM | 1 nM | 10 nM | 100 nM | 1000 nM
[1] | 11.2 | 4.03 | -7.68 | -18.6 | -2.96
[2] | -7.12 | -3.44 | -4.86 | 3.85 | 65.1
[3] | -2.51 | 2.42 | 9.55 | -20 | 65
[4] | -6.8 | -0.24 | -8.73 | -1.9 | -20.2
[5] | -13.8 | -10.1 | -23.1 | -19.9 | 55
[6] | 2.63 | 6.68 | 12.1 | 7.51 | 81.5
[7] | -13.5 | -11.6 | 1.83 | 36.3 | 70.1
[8] | 1.74 | 25.3 | 15.3 | 19.4 | 60
[9] | -7.8 | -3.54 | 0.07 | 10.6 | 83.4
[10] | -8.44 | -4.74 | -4.88 | 8.88 | 33.5
[11] | 6.88 | 2.27 | -1.37 | 18.4 | 74.2
[12] | 2.87 | -1.56 | 1.5 | -2.42 | 75
[13] | -6.26 | -2.49 | 1.52 | 27 | 68.5
[14] | -4.16 | -2.02 | 24.4 | -11.2 | 70.4

Conditions | drug sensitivity score
[15] | 3.2
[16] | 0
[17] | 4.12
[18] | 2.66
[19] | 0
[20] | 2.11
[21] | 5.73
[22] | 8.25
[23] | 8.02
[24] | 6.4
[25] | 2.89
[26] | 6.96
[27] | 3.94
[28] | 7.33
